The text below walks through data of US20230286998A1, “SUCCINATE SALTS OF OCTAHYDROTHIENOQUINOLINE COMPOUND AND CRYSTALS THEREOF” (KISSEI PHARMACEUTICAL CO., LTD., priority 2020, published 2023).

SMILES strings stand for the structures. Entries after “also recorded” stand apart in the source; their conditions may differ. Counter-ions that a name gives are not always drawn.

Type in all cases: physicochemical
The nature of data set [1]: Stability Test 1: storage under an open condition at 60° C. (powder X-ray diffraction, HPLC related substances, appearance). The following applies: 2 months; for Increased Amount of related substance: HPLC area normalization; for Change of Crystal form: powder X-ray diffraction. The protocol:
(§1) The Form I crystal of the salt (A-1), the Form I crystal of the salt (A-2), the crystal of hydrochloric acid of the compound (B), the crystal of sebacate salt of the compound (B) and the crystal of adipate salt were stored under an open condition at 60° C., and the physical stability and the chemical stability of each crystal form were examined. The powder X-ray diffractions of the samples at the start of the specimens and 2 months later were measured in the same manner as in Test Example 1, and the physical stability of the crystal forms and the amounts of the related substances were measured using the following HPLC measurement conditions, thereby observing the chemical stability. At the same time, changes in appearance were also observed.
(§2) • Detector: Ultraviolet and visible absorptiometer/wavelength: 225 nm • Column: L-column2 ODS, 3 μm, 4.6×150 mm (manufactured by Chemicals Evaluation and Research Institute, Japan) • Column temperature: constant temperature around 30° C. • Flow rate: 1.0 mL/min • Mobile phase A: a solution (pH 6.9) in which potassium dihydrogen phosphate and dipotassium hydrogen phosphate are mixed in water so as to be each 10 mmol/L • Mobile phase B: acetonitrile • Mobile phase ratios • 0 to 25 minutes: mobile phase A/mobile phase B=79/21 • 25 to 45 minutes: mobile phase A/mobile phase B=79/21 to 25/75 (Gradient) • 45 to 50 minutes: mobile phase A/mobile phase B=25/75 • Injection volume: 5 μL • Sample cooler: 4° C. • Dissolution solvent: A mixed solution prepared by adding 20 parts of acetonitrile to 80 parts of a 20 mmol/L potassium dihydrogen phosphate aqueous solution adjusted to pH 3. • Sample solution: A liquid obtained by dissolving the specimen in the dissolution solvent and adjusting to about 1.0 mg/mL as the compound (B).
(§3) Excluding the peaks derived from the blank, the peak areas of the respective peaks were measured by an automatic integration method, and the values thereof were determined by an area normalization method.

A short description of data set [2]: Stability Test 2: storage under an open condition at 40° C. and 75% relative humidity (powder X-ray diffraction, HPLC related substances, appearance). The following applies: 2 months; for Increased Amount of related substance: HPLC area normalization; for Change of Crystal form: powder X-ray diffraction. On the procedure: as §1, with “hydrochloride salt” for “hydrochloric acid”, “40° C. and 75% relative humidity,” for “60° C.,”
as §2, with “a 10” for “a 20”
as §3

A short description of data set [3]: Water adsorption and desorption test (IGA-Sorp). The settings on record: 25° C. The protocol:
The water adsorption and desorption behaviors of the Form I crystal of the salt (A-1), the crystal of hydrochloride salt of the compound (B) and the crystal of sebacate salt of the compound (B) were measured using IGA-Sorp (manufactured by HIDEN isochema) under the following conditions. The water adsorption and desorption isotherm of the Form I crystal of the salt (A-1) is shown in FIG. 11, and the water adsorption and desorption isotherm of hydrochloride salt of the compound (B) is shown in FIG. 12.
• Form I crystal of salt (A-1): 14.7 mg • Crystal of hydrochloride salt of compound (B): 10.4 mg • Crystal of sebacate salt of compound (B): 13.2 mg
Each specimen was placed in a water adsorption and desorption measurement device. The temperature and the humidity were set to 25° C./40% RH or 50% RH, and equilibration was conducted for 60 minutes or more to stabilize the mass.
The mass of each specimen subjected to mass equilibration was continuously measured while changing the relative humidity at every 5% RH in adsorption and desorption.
The mass % was expressed as a mass percentage of a mass change before and after adsorption (or desorption) based on a dry sample.

Setting [4] is: listed as Forn I crystal of the salt (A-2), Monosuccinate Salt.

In the case of `CCCN(C(=O)NCCN(C)C)C(=O)[C@@H]1C[C@@H]2Cc3c(sc(N)c3C#N)C[C@H]2N(C)C1` [Form I crystal of the salt (A-1), 1-{[(4aR,6R,8aR)-2-Amino-3-cyano-8-methyl-4,4a,5,6,7,8,8a,9-octahydrothieno[3,2-g]quinolin-6-yl]carbonyl}-3-[2-(dimethylamino)ethyl]-1-propylurea Sesquisuccinate Monohydrate], in data set [1], the “chemical stability (in words)” value is “chemically stable” and the “Increased Amount of related substance” value is “No increase”. Also, in data set [1] (Sesquisuccinate Monohydrate), the Appearance result is recorded as “almost no change in appearance; also recorded: White (A slight coloration” and the “Change of Crystal form” value was “No change in crystal form”. Also, in data set [2], the “chemical stability (in words)” value is on record as “chemically stable” and the “Increased Amount of related substance” value is “+0.01%”. Besides, in data set [2] (Sesquisuccinate Monohydrate), the Appearance result is “no change in appearance; also recorded: No change in white” and the “Change of Crystal form” value is given as “No change in crystal form”. Also, the “Change of water amount at adsorption” value in data set [3] (50-90% RH, based on a dry sample) worked out at 0.3 mass %. Besides, the “Change of water amount at desorption” value in data set [3] (90-0% RH, based on a dry sample) is 0.8 mass %. Also, the “hygroscopicity (in words)” value in data set [3] (water adsorption and desorption) was “does not exhibit hygroscopicity”.

On to `CCCN(C(=O)NCCN(C)C)C(=O)[C@@H]1C[C@@H]2Cc3c(sc(N)c3C#N)C[C@H]2N(C)C1.O=C(O)CCC(=O)O` [Form I crystal of the salt (A-2), 1-{[(4aR,6R,8aR)-2-Amino-3-cyano-8-methyl-4,4a,5,6,7,8,8a,9-octahydrothieno[3,2-g]quinolin-6-yl]carbonyl}-3-[2-(dimethylamino)ethyl]-1-propylurea Monosuccinate Salt], for which the “chemical stability (in words)” value in data set [1] and in data set [2] was “chemically stable” in each case. The “Increased Amount of related substance” value in data set [1] is listed as −0.05%; in data set [2], “No increase”. The Appearance result in data set [1] (Monosuccinate Salt) was “almost no change in appearance”; in data set [1] (setting [4]), “White (A slight coloration”; in data set [2] (Monosuccinate Salt), “no change in appearance; also recorded: No change in white”. For the same compound, the “Change of Crystal form” value is “No change in crystal form” in data set [1] (Monosuccinate Salt), “No change” in data set [1] (setting [4]) and “No change in crystal form” in data set [2] (Monosuccinate Salt).
